Assay [1] concerns chondrocytes. The note with it: CNP 10 to 100 pM, at the highest dose; cited from earlier work.
Assay [2] deals with rabbit eyes. The assay is described as follows: Efficacy in the rabbit: intraocular pressure (IOP) after a single topical ocular drop. The note with it: dose 300 ug topical ocular, single 30 μL drop, up to 4 hr post dose, 1% as suspension (+) or solution (++) per mark on label. It is filed as in vivo. How it is done:
A single 30 μL drop of a test item formulation was administered to rabbit eyes (n=8 to 10).
Intraocular pressure (IOP) was assessed in each eye at 0 hr, just prior to dosing, and again hourly for up to 4 hr post dose. The efficacy of a given formulation was determined based on the difference between the pretreatment TOP readings at 0 hr and the post treatment readings. A maximum percent reduction in IOP greater than 15% was noted by the “+” symbol. A maximum IOP reduction of less than 15% was assigned the “−” symbol.

Assay [3] deals with small-cell lung cancer cells. The note with it: 100 μM; cited from earlier work.
Assay [4] relates to human renal carcinoma cells. The note with it: 100 μM; cited from earlier work.
The target in assay [5] is T1, NPR-B receptor (Mus musculus, UniProt Q6VVW5).
T1 construct: the only natriuretic receptor present on the cell surface was the NPR-B receptor; host or cells: AtT-20 pituitary tumor cells (endogenous receptor)
T1 sequence (Q6VVW5 17-1047): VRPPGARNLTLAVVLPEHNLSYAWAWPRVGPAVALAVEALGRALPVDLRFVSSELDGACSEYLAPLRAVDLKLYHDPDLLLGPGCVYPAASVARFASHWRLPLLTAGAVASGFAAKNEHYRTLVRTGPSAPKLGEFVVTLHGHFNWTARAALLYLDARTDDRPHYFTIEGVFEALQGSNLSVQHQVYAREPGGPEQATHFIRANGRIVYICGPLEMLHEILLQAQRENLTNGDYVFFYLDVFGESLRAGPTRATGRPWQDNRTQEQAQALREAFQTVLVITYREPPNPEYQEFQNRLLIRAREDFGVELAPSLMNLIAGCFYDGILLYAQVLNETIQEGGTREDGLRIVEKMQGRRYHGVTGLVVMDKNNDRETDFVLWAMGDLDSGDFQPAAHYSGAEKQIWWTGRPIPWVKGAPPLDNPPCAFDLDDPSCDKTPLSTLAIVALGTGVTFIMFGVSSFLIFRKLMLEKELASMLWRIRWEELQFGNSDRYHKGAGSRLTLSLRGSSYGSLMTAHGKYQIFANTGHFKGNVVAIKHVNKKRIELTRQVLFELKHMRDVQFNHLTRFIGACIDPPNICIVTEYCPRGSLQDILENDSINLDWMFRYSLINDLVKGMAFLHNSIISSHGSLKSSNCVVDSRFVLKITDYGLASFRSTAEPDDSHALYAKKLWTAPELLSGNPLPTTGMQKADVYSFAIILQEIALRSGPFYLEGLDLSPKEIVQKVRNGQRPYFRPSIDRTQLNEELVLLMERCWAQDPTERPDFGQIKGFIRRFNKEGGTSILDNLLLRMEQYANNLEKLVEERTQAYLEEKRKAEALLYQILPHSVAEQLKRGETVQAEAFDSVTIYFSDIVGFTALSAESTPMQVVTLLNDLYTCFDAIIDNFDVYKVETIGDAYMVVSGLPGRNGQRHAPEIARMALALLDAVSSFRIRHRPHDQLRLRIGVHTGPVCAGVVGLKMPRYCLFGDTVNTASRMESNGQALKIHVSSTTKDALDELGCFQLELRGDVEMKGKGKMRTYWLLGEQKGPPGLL
The conditions noted are these: AtT-20 cells; cited from earlier work.

Assay [6] deals with human colon adenocarcinoma cells. The note with it: 1 mM ANP, within 24 h; cited from earlier work.

For `CC[C@H](C)[C@@H]1NC(=O)[C@H](CCCNC(=N)N)NC(=O)[C@H](CC(=O)O)NC(=O)[C@H](CC(C)C)NC(=O)[C@H](CCCCN)NC(=O)[C@H](CC(C)C)NC(=O)CNC(=O)[C@H](Cc2ccccc2)NC(=O)[C@@H](NC(=O)CNC(=O)[C@H](CCCCN)NC(=O)[C@H](CO)NC(=O)[C@H](CC(C)C)NC(=O)CN)CSSC[C@@H](C(=O)O)NC(=O)CNC(=O)[C@H](CC(C)C)NC(=O)CNC(=O)[C@H](CO)NC(=O)[C@H](CCSC)NC(=O)[C@H](CO)NC(=O)CNC1=O` [CNP, C-type natriuretic peptide], in assay [1], the “increase in cellularity (chondrocyte proliferation)” value is “up to 43%”. In assay [2], the “RIOP, maximum percent reduction in IOP” value is “− (− IOP reduction <15%)”. Further, the “decrease in the number of small-cell lung cancer cells” value in assay [3] is 39%. The “decrease in cell number of human renal carcinoma cells” value in assay [4] is recorded as 10%. Also, the “stimulation of cGMP production” value in assay [5] is given as “up to 200 fold”.

Regarding `CC[C@H](C)[C@@H]1NC(=O)[C@H](CCCNC(=N)N)NC(=O)[C@H](CC(=O)O)NC(=O)[C@H](CCSC)NC(=O)[C@H](CCCNC(=N)N)NC(=O)CNC(=O)CNC(=O)[C@H](Cc2ccccc2)NC(=O)[C@@H](NC(=O)[C@H](CO)NC(=O)[C@H](CO)NC(=O)[C@H](CCCNC(=N)N)NC(=O)[C@H](CCCNC(=N)N)NC(=O)[C@H](CC(C)C)NC(=O)[C@@H](N)CO)CSSC[C@@H](C(=O)N[C@@H](CC(N)=O)C(=O)N[C@@H](CO)C(=O)N[C@@H](Cc2ccccc2)C(=O)N[C@@H](CCCNC(=N)N)C(=O)N[C@@H](Cc2ccc(O)cc2)C(=O)O)NC(=O)CNC(=O)[C@H](CC(C)C)NC(=O)CNC(=O)[C@H](CO)NC(=O)[C@H](CCC(N)=O)NC(=O)[C@H](C)NC(=O)CNC1=O` [ANP, atrial natriuretic peptide], the “decrease in cell number” value in assay [6] is “up to 97%”.

The record behind these values is patent US9822147B2, “Methods of treating ophthalmic diseases using NPR-B agonists” (priority 2009, dated 2017).
